Data as given in US8609639B2, “Stat3 inhibitor having anti-cancer activity and methods” (University of South Florida, priority 2006, dated 2013).
Residues, ends and D or L forms follow the SMILES beside them. *: point of attachment. Cbz = O=C(OCc1ccccc1)*

Tests used:
[1] = system: Stat3-YFP in NIH3T3/v-Src/Stat3-YFP fibroblasts; assay: Fluorescence and confocal microscopy of Stat3-YFP signal; type: cell-based, mouse; design: Stat3-YFP fluorescence signal: dose or concentration left out as unconfirmed; conditions: for Stat3-YFP fluorescence signal: S3I-M2001, loss evident from 2-5 h, MG132 alone; for aggregated bodies (aggresomes) of Stat3-YFP: within 5 h of treatment, laser scanning confocal microscopy
Procedure: NIH3T3/vSrc cells were either stably transfected with Stat3-YFP construct (23), or growing in 96-well plates on chamber slides were transiently transfected with the Stat3-YFP plasmid (23) using Lipofectamine 2000 for 24 h according to the manufacturer's protocol (Roche), treated with or without S3I-M2001 for different times, and examined under Nikon Eclipse TE200 fluorescence microscope (Nikon). Images were captured and processed by NIKON NIS element-Basic research software.
Specimens were then washed 5 times with PBS, covered with cover slides with [sequence] mounting medium containing DAPI, and examined immediately under Leica TCS SP5 confocal microscope (Germany) at appropriate wavelengths depending on GFP or YFP. Images were captured and processed using the Leica TCS SP 5 software.

[2] = system: GFP in NIH3T3/v-Src/GFP fibroblasts
[3] = system: Panc-1; assay: Cell migration assay (Bio-Coat chambers); type: cell-based, human; design: dose or concentration left out as unconfirmed; conditions: S3I-M2001, 24 h
Procedure: (§1) Cell migration experiments were carried out using Bio-Coat migration chambers (Becton Dickinson, Franklin, N.J.) of 24-well companion plates with cell culture inserts containing […] pore size filters, according to the manufacturer's protocol. […] After 24-h incubation (37° C., 5% CO2), the filters were removed and the upper surface was wiped with a cotton-tipped applicator to remove non-migratory cells. Cells that had migrated through the filter pores and attached to bottom surface of the filter were fixed and stained. The membranes were mounted on glass slides and cells from 10 random microscopic fields (×400 magnification) were counted. Cell invasion experiments were performed using same Bio-Coat invasion chambers (Becton Dickenson), as already described, except that here, filters ([…]) were used coated with the basement membrane matrigel. Percent inhibition is calculated as 100−y, where y equals residual number of stained cells in the treated/total number in the control ×100.

[4] = system: MDA-MB-231; assay: Cell migration assay (Bio-Coat chambers); type: cell-based, human; design: dose or concentration left out as unconfirmed; conditions: S3I-M2001, 24 h
Procedure: as §1

[5] = target: Lck SH2-GST (Homo sapiens, UniProt P06239); assay: Lck-SH2 domain ELISA assay; type: binding; design: dose or concentration left out as unconfirmed; conditions: S3I-M2001
Lck SH2-GST, sequence (P06239 127-224 limits assumed): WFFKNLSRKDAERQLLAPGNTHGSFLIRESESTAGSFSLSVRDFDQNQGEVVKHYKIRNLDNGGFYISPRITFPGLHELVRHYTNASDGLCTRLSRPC
Procedure: An ELISA assay for the binding of Lck-SH2 domain with its conjugate phosphopeptide, biotinyl-e-Ac-EPQpYEEIEL-OH, was carried out, as previously described (13, 22). Absorbance reading (450 nm) for the peroxidase reaction was determined with an ELISA plate reader.

[6] = system: Bcl-xL expression in NIH3T3/v-Src and MDA-MB-435 cells; assay: Western blot analysis for Bcl-xL; type: cell-based, mouse, human
Text: (§2) Whole-cell lysates prepared in boiling SDS sample-loading buffer. i.p. from lysates using monoclonal anti-Stat3 antibody (Cell Signaling Technology), and the probing of nitrocellulose membranes with primary antibodies and detection of horseradish peroxidase-conjugated secondary antibodies by enhanced chemiluminescence (Amersham Biosciences) were done, as previously described (13, 17, 19, 21). The probes used were anti-Stat3 (Santa Cruz), anti-pTyr705Stat3 (Cell Signaling Technology), anti-YFP antibodies (Santa Cruz), anti-Bcl-xL, anti-pSrc, anti-Src, anti-pJak1, anti-Jak1, anti-pEr1/2 and anti-Erk1/2, and b-actin (Cell Signaling Technology).

[7] = system: NIH3T3/v-Src, MDA-MB-231 and MDA-MB-435 cells; assay: TUNEL and Annexin V binding/Flow Cytometry apoptosis, cells harbouring aberrant Stat3; type: cell-based, mouse, human; design: apoptosis (Annexin V) after transfection with Stat3 SH2 domain: dose or concentration left out as unconfirmed
Procedure: (§3) In some cases, cells were first transfected with the plasmid for the Stat3 SH2 (ST3-SH2) domain or mock-transfected (pcDNA3 empty vector) for 24 h or untransfected prior to treatment with S3I-M2001 for an additional 24-48 h. Cells were then detached and analyzed by Annexin V binding (BD Biosciences, San Diego) according to the manufacturer's protocol and Flow Cytometry to quantify the percent apoptosis.

[8] = target: T1, Stat3 ubiquitination in NIH3T3/v-Src fibroblasts (Mus musculus, UniProt P42227); assay: Immunoblotting for ubiquitin of Stat3 immunoprecipitates; type: cell-based; conditions: up to 24 h treatment
T1 construct: endogenous in cells; host or cells: NIH3T3/v-Src
T1 sequence (P42227 whole entry): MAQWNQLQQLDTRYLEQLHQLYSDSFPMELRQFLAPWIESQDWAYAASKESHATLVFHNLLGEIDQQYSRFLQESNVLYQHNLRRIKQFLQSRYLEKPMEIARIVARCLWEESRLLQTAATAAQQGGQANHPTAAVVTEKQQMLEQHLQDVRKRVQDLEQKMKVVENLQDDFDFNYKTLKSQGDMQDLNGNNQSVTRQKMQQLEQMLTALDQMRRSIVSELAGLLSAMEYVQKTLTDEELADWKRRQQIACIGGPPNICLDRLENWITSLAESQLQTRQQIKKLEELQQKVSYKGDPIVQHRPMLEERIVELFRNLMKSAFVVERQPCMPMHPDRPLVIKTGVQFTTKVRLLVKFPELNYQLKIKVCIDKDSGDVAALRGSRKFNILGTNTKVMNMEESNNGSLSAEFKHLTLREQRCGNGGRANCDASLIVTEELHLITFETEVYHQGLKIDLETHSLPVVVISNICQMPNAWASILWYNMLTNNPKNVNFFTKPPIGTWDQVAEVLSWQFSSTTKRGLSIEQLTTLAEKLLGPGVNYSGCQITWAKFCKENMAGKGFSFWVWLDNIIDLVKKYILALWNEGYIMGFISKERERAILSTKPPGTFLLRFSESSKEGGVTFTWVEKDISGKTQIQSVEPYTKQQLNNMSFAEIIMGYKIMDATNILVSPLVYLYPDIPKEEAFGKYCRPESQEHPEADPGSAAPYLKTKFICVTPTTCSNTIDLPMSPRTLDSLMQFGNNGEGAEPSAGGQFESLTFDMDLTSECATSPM
Text: as §2

[9] = system: Stat3 nuclear localization in EGF-stimulated NIH3T3/hEGFR; assay: Immunofluorescence/confocal microscopy of Stat3 nuclear localization; type: cell-based, mouse; design: dose or concentration left out as unconfirmed; conditions: for 3 h prior to rhEGF stimulation for 10 min
Procedure: NIH3T3/hEGFR cells were grown in multi-cell plates and treated with or without S3I-M2001 for 3 h prior to stimulation by rhEGF (10 ng/ml) for 10 min or NIH3T3/vSrc cells were grown in multi-cell plates or chamber slides and cells were fixed with 4% paraformaldehyde for 15 min. Cells were washed 3 times in PBS, permeabilized with 0.2% Triton X for 5 min, and further washed 3-4 times with PBS. Specimens were then blocked in 5% goat serum for 60 min and incubated with Stat3 (Cell Signaling Technology) or Hook2 (Santa Cruz, Santa Cruz, Calif.) antibody at 1:50 dilution at 4° C. overnight. Subsequently, cells were rinsed 4-5 times in PBS, incubated with Alexa fluor 488 rabbit antibody (Molecular probe, Eugene, Oreg.) for (Stat3 detection) or NL637 goat antibody (R&D Systems, Minneapolis, Minn.) for Hook2 for 1-2 h at room temperature in the dark. Specimens were then washed 5 times with PBS, covered with cover slides with [sequence] mounting medium containing DAPI, and examined immediately under Leica TCS SP5 confocal microscope (Germany) at appropriate wavelengths depending on GFP or YFP. Images were captured and processed using the Leica TCS SP 5 software.

[10] = system: normal NIH3T3, MCF-10A, MDA-MB-453, HUVEC, HAEC and HL-60 cells; assay: TUNEL and Annexin V apoptosis, cells without aberrant Stat3; type: cell-based, mouse, human; conditions: cells that do not contain aberrant Stat3
Procedure: as §3

[11] = target: T2, Stat3:Stat3 dimer (Homo sapiens, UniProt P40763); assay: Dissociation-reassociation analysis with EMSA (pooled lysates of activated Stat1 and Stat3); type: biochemical; conditions: pooled lysates of activated Stat1 and Stat3, increasing concentration
T2 construct: made in house; host or cells: Sf-9 insect cells (baculovirus; co-infected with Jak1 and c-Src)
T2 sequence (P40763 whole entry): as the sequence (P42227 whole entry) above, with D760E counted along it
Text: Infect of Sf-9 cells with Stat1, Stat3, Jak1, and c-Src recombinant baculoviruses and preparation of the cell lysates containing activated Stat1 or Stat3 have been previously described (9, 21).
In the previously reported dissociation-reassociation analysis (9, 10, 20), two independently-prepared cell lysate, one containing only activated Stat3:Stat3 dimer and the other containing only activated Stat1:Stat1 dimer (21), were mixed together and pre-treated with or without increasing concentration of S3I-M2001 and subjected to STAT DNA-binding assay with EMSA analysis.
The dissociation-reassociation analysis with EMSA analysis was performed, as previously done (10, 20).

[12] = system: v-Src-induced Stat3-dependent pLucTKS3 luciferase reporter; assay: Transient transfection luciferase reporter, Stat3-dependent; type: cell-based, mouse; conditions: NIH3T3 fibroblasts co-transfected with v-Src
[13] = system: constitutively-active Stat3; assay: Constitutive Stat3 Tyr phosphorylation and activation in cells (EMSA, Western blot, immunocytostaining); type: cell-based, mouse, human; conditions: NIH3T3/v-Src, MDA-MB-231 and MDA-MB-435 cell lines
Procedure: Nuclear extract preparation from cells and EMSA were carried out as previously described (9-12, 16, 18, 40). Nuclear extract preparations from v-Src-transformed (NIH3T3/v-Src) or EGF-stimulated NIH3T3/hEGFR fibroblasts, or tumor cell lines were subjected to EMSA. The 32P-labeled oligonucleotide probe used was hSIE (high affinity sis-inducible element from the c-fos gene, m67 variant, as reported by Wagner et al. (42), and that binds Stat1 and Stat3. Except where indicated, inhibitor compound was pre-incubated with the nuclear extract for 30 min at room temperature prior to incubation with radiolabeled hSIE probe. Where necessary, cells were stimulated with recombinant human EGF (rhEGF) for 5-15 min prior to preparation of nuclear extracts. Bands corresponding to DNA-binding activities were scanned and quantified for each concentration of compound and plotted as percent of control (vehicle) against concentration of compound, from which the IC50 values were derived, as previously reported (9, 10, 42). […]

[14] = system: Panc-1; assay: Matrigel invasion assay; type: cell-based, human; design: dose or concentration left out as unconfirmed; conditions: matrigel-coated filters, 24 h
Procedure: as §1

[15] = system: MDA-MB-231; assay: Matrigel invasion assay; type: cell-based, human; design: dose or concentration left out as unconfirmed; conditions: matrigel-coated filters, 24 h
Procedure: as §1

[16] = system: MDA-MB-231 tumor xenografts; assay: Human breast tumor xenografts in athymic nude mice; type: in vivo, mouse
Procedure: Six-week-old female athymic nude mice were purchased from Harlan and maintained in the institutional animal facilities approved by the American Association for Accreditation of Laboratory Animal Care. Athymic nude mice were injected subcutaneously in the left flank area with 5×10^6 human breast cancer MDA-MB-231 cells in […] of PBS. After 5 to 10 days, tumors of a diameter of 3 mm were established. Animals were grouped so that the mean tumor sizes in all groups were nearly identical, given S3I-[…] i.v. at 5, 10 and 20 mg/kg every 2 or every 3 days for 26 days and monitored every 2 or 3 days, and tumor sizes were measured with calipers. Tumor volume was calculated according to the formula V=0.52×a2×b, where a, smallest superficial diameter, b, largest superficial diameter.

[17] = target: Stat3 activation over that of Stat1 (Mus musculus, UniProt P42227); assay: rhEGF-induced STAT activation in NIH3T3/hEGFR fibroblasts (EMSA); type: cell-based
Stat3 activation over that of Stat1, sequence (P42227 whole entry): as the sequence (P42227 whole entry) above
Procedure: (§4) Nuclear extract preparation from cells and EMSA were carried out as previously described (9-12, 16, 18, 40). Nuclear extract preparations from v-Src-transformed (NIH3T3/v-Src) or EGF-stimulated NIH3T3/hEGFR fibroblasts, or tumor cell lines were subjected to EMSA. The 32P-labeled oligonucleotide probe used was hSIE (high affinity sis-inducible element from the c-fos gene, m67 variant, as reported by Wagner et al. (42), and that binds Stat1 and Stat3. Except where indicated, inhibitor compound was pre-incubated with the nuclear extract for 30 min at room temperature prior to incubation with radiolabeled hSIE probe. Where necessary, cells were stimulated with recombinant human EGF (rhEGF) for 5-15 min prior to preparation of nuclear extracts. Bands corresponding to DNA-binding activities were scanned and quantified for each concentration of compound and plotted as percent of control (vehicle) against concentration of compound, from which the IC50 values were derived, as previously reported (9, 10, 42).

[18] = system: pJak1, pSrc and pErk1/2 (MAPKs); assay: Western blot of whole-cell lysates for non-Stat3 signalling proteins; type: cell-based, mouse; conditions: NIH3T3/v-Src fibroblasts
Text: as §2

[19] = system: MDA-MB-435, MDA-MB-231, Panc-1 cancer cells and NIH3T3/v-Src fibroblasts; assay: WST-1 cell viability assay, cells harbouring constitutively-active Stat3; type: cell-based, human, mouse; conditions: WST-1 and trypan blue exclusion/cell counting
Procedure: as §3

[20] = system: NIH3T3/v-Src and Panc-1 cells; assay: Soft-agar colony formation assay, cells with active Stat3; type: cell-based, mouse, human; conditions: treated every three days
Procedure: (§5) Colony formation assays were carried out in six-well dishes and colonies were enumerated as previously described (19). Treatment with S3I-M2001 was initiated 1 day after seeding cells in soft-agar suspension by adding […] of medium with or without compound, and repeated every three days, until large colonies were evident.

[21] = system: NIH3T3/v-Src; assay: Cell migration assay (Bio-Coat chambers); type: cell-based, mouse; design: dose or concentration left out as unconfirmed; conditions: S3I-M2001, 24 h
Procedure: as §1

[22] = system: NIH3T3/v-Ras; assay: Soft-agar colony formation assay, v-Ras transformed fibroblasts; type: cell-based, mouse; conditions: NIH3T3/v-Ras lacking constitutively-active Stat3
Procedure: as §5

[23] = system: NIH3T3/v-Src; assay: Matrigel invasion assay; type: cell-based, mouse; design: dose or concentration left out as unconfirmed; conditions: matrigel-coated filters, 24 h
Procedure: as §1

[24] = target: T3, Stat3:Stat3 (Mus musculus, UniProt P42227); assay: STAT DNA-binding assay/EMSA in nuclear extracts (hSIE probe); type: biochemical; conditions: from EMSA IC50 values
T3 construct: Nuclear extract preparations from v-Src-transformed (NIH3T3/v-Src) or EGF-stimulated NIH3T3/hEGFR fibroblasts, or tumor cell lines were subjected to EMSA; endogenous in cells; host or cells: NIH3T3/v-Src or EGF-stimulated NIH3T3/hEGFR fibroblasts (nuclear extracts)
T3 sequence (P42227 2-770 limits assumed): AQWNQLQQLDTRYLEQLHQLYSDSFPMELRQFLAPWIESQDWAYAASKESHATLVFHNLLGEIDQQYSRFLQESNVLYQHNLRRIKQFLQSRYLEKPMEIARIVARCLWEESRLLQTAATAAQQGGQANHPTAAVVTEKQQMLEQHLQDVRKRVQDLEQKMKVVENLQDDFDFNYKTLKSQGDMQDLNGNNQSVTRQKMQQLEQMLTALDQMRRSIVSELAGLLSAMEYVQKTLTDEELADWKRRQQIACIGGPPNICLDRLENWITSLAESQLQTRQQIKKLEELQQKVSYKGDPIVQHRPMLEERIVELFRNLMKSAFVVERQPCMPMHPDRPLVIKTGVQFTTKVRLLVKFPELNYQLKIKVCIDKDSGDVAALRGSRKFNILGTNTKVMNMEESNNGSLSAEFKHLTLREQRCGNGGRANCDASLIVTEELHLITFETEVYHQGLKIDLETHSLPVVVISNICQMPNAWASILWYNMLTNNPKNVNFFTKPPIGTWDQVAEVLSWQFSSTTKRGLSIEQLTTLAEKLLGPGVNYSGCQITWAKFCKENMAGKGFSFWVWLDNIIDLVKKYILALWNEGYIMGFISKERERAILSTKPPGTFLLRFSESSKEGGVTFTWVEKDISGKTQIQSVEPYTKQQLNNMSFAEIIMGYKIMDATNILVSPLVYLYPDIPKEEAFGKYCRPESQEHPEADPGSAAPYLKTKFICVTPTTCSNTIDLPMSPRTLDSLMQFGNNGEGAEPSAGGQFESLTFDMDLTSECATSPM
Procedure: as §4

Q: With CC(C)C[C@@H](C=O)NC(=O)[C@H](CC(C)C)NC(=O)[C@H](CC(C)C)NC(=O)OCc1ccccc1 [MG132, reference compound] (Cbz-Leu-Leu-Leu-aldehyde) as the molecule, how does the Stat3-YFP fluorescence signal [1] read?
A: no appreciable effect

Q: What about the GFP signal change [2] of the same molecule?
A: no evidence of GFP signal change

Q: With N.N.[Cl][Pt][Cl] [Cisplatin, reference compound] as the molecule, how does the “aggregated bodies (aggresomes) of Stat3-YFP” value [1] read?
A: no such effect

Q: CCCCCCNC(=O)c1nc(-c2cccc3ccccc23)oc1Cc1ccc(OP(=O)(O)O)cc1 [S3I-M2001] was tested. Which inhibition of migration [3] did it give?
A: 21%

Q: What about the inhibition of migration [4] of the same molecule?
A: 37%

Q: What about the “binding of Lck SH2-GST to phosphopeptide biotinyl-e-Ac-EPQpYEEIEL-OH” value [5] of the same molecule?
A: minimal effect

Q: What about the Bcl-xL expression [6] of the same molecule?
A: diminished Bcl-xL expression

Q: And the “apoptosis (Annexin V) after transfection with Stat3 SH2 domain” value ([7]; 3T3/v-Src/ST3-SH2 versus mock-transfected or untransfected, 24 h)?
A: diminished apoptosis

Q: And the “apoptosis (TUNEL, Annexin V)” value ([7]; NIH3T3/v-Src, MDA-MB-231, MDA-MB-435, 48 h (TUNEL))?
A: strong apoptosis

Q: What about the “level of Stat3 ubiquitination” value [8] of the same molecule?
A: strong and time-dependent increase

Q: And the “EGF-induced nuclear staining of Stat3” value [9]?
A: significantly attenuated

Q: And the “apoptosis (TUNEL, Annexin V)” value [10]?
A: minimal effect

Q: And the “Stat3:Stat3 DNA-binding activity in pooled lysates” value [11]?
A: concentration-dependent diminution

Q: And the “Stat3-dependent pLucTKS3 luciferase reporter activity” value [12]?
A: inhibited

Q: And the Stat3-YFP fluorescence signal [1]?
A: time-dependent decrease

Q: And the “aggregated bodies (aggresomes) of Stat3-YFP” value [1]?
A: accompanied by aggregated bodies

Q: And the “constitutive Stat3 Tyr phosphorylation and activation” value [13]?
A: inhibited constitutive Stat3 Tyr phosphorylation and activation

Q: What about the inhibition of invasion [14] of the same molecule?
A: 38%

Q: And the inhibition of invasion [15]?
A: 48%

Q: What about the viability of animals ([16]; highest dose applied, 20 mg kg-1 i.v.) of the same molecule?
A: remained viable

Q: What about the “growth of tumors (tumor volume)” value ([16]; i.v. 5, 10 and 20 mg kg-1 every 2 or 3 days for 26 days) of the same molecule?
A: strongly inhibited growth of tumors

Q: What about the “Stat3 activity and pTyr levels in residual tumor tissue” value ([16]; tumors T1 and T2, 3 days after last 5 mg kg-1 injection, EMSA and Western blot) of the same molecule?
A: abrogated Stat3 activity and pTyr levels

Q: What about the “rhEGF-induced Stat3 activation versus Stat1” value [17] of the same molecule?
A: preferentially inhibited

Q: What about the “pJak1, pSrc and pErk1/2 levels” value [18] of the same molecule?
A: not repressed

Q: What about the GFP signal change [2] of the same molecule?
A: no evidence of GFP signal change

Q: What about the “selective loss of viability of cells with constitutively-active Stat3 versus cells lacking it” value [19] of the same molecule?
A: greater than 2 fold

Q: And the growth in soft-agar [20]?
A: blocked growth in soft-agar

Q: What about the inhibition of migration [21] of the same molecule?
A: 76%

Q: And the growth in soft-agar [22]?
A: no appreciable effects

Q: And the inhibition of invasion [23]?
A: 28%

Q: What about the “preferential inhibition of Stat3 activity over Stat1” value [24] of the same molecule?
A: 2 fold
